This note sets out measurements from ChEMBL document CHEMBL1126341, “Synthesis of stereoisomers of 1,4:3,6-dianhydrohexitol nitrate derivative, KF-14124” (1992).

Type in all cases: functional
Assay [1] is filed under the species Canis familiaris. The experiment in a line: Minimum effective dose in propanol induced heart failure in left ventricular end diastolic pressure model of dog when dose given intradermally. The conditions noted are these: Canis lupus familiaris, Heart left ventricle; read-out: MED.
Assay [2] deals with Rattus norvegicus. The experiment in a line: Compound was tested for inhibition of T-wave elevation in lysine-Vasopressin -Induced-Angina Pectoris model in rats when administered intraperitoneally. The conditions noted are these: for minimal effective dose: Rattus norvegicus, ip, read-out: MED.
Assay [3] concerns Rattus norvegicus. The experiment in a line: Compound was tested for inhibition of T-wave elevation in lysine-Vasopressin -Induced-Angina Pectoris model in rats when administered perorally. The note with it: po, read-out: MED.
Assay [4] is filed under the species Canis familiaris. The experiment in a line: Minimum effective dose in […] induced heart failure in left ventricular end diastolic pressure model of dog. The conditions noted are these: Canis lupus familiaris, Heart left ventricle; read-out: MED.

`O=[N+]([O-])O[C@H]1CO[C@@H]2C(N3CCN(CCCSc4ccccc4)CC3)CO[C@H]12` (single isomer, unassigned): the minimal effective dose in the assay filed under Canis familiaris [1] amounted to 0.1 mg/kg; in the assay with Rattus norvegicus [2] it was 12.5 mg/kg; with Rattus norvegicus [3] it was 10 mg/kg.

Take `O=[N+]([O-])O[C@H]1CO[C@H]2[C@@H]1OC[C@H]2O[N+](=O)[O-]` [ISOSORBIDE DINITRATE]: in the assay filed under Canis familiaris [4], the minimal effective dose is more than 0.3 mg/kg.

With `O=[N+]([O-])O[C@@H]1CO[C@H]2[C@@H]1OC[C@@H]2N1CCN(CCCSc2ccccc2)CC1`, the results for the minimal effective dose in the assay on Rattus norvegicus [2] and in the assay on Rattus norvegicus [3] were more than 25 mg/kg and more than 30 mg/kg, respectively.

Consider `O=[N+]([O-])O[C@H]1CO[C@H]2[C@@H]1OC[C@H]2N1CCN(CCCSc2ccccc2)CC1`, for which the MED with Rattus norvegicus [2] was more than 25 mg/kg.

`O=[N+]([O-])O[C@@H]1CO[C@H]2[C@@H]1OC[C@H]2N1CCN(CCCSc2ccccc2)CC1`: in the assay with Rattus norvegicus [2], the minimal effective dose was more than 25 mg/kg.
